According to paper PMC11530130, “Peripherally restricted PICK1 inhibitor mPD5 ameliorates pain behaviors in murine inflammatory and neuropathic pain models” (JCI Insight, 2024):

Key:
[1] = system: mice, spared nerve injury (SNI) model; type: in vivo, mouse; settings: mouse, in vivo, sc
Protocol: solution (0.05 mg/kg) injected s.c. 30 min before surgery (10 μL/g). For surgery, mice were anaesthetised with ketamine (100 mg/kg, i.p.) and xylazine (10 mg/kg, i.p.) (volume 10 µL/g) with 100 μL of 1% xylocaine solution infiltrated at the site of the incision. The distal trifurcation of the sciatic nerve was identified, and the tibial and common peroneal branches were ligated with polypropylene nonabsorbable 6-0 sutures (Ethicon) and 1 mm was cut out, leaving the sural branch intact. The wound was closed with sutures, and the animals were allowed to recover and returned to their cages. Two subcutaneous injections of buprenorphine (0.05 mg/kg) were performed with an 8 to 12 hours delay decreasing pain due to the surgery […]
The remaining SNI pain experiments were performed in-house using the following procedure.
SNI surgery was performed on the left hindleg of C57BL/6J male and female mice (Janvier, France) under 2% isoflurane anaesthesia. Skin on the lateral surface was incised between hip and knee followed by lengthwise division of the biceps femoris muscle leading to exposure of the three branches of the sciatic nerve. Sural branch was left intact, while the peroneal and tibial branches were ligated with a single surgical knot and axotomized distally of the ligation.
Wounds were closed with surgical glue or medical clips and animals were monitored daily for signs of stress or discomfort, but in all cases recovered uneventfully. […]
(§1) The skin wound was closed with two medical clips (Michel Suture Clips, 7.5x1.75 mm, Angthos, 12040-01). Post-surgical analgesia included s.c. injection of 5 mg/kg carprofen (Carprosan vet, 50 mg/mL mixed 1:25 in sterile ddH2O, Dechra, Le Vet Beheer B.V., Netherlands, Batch: 050520) right after surgery and the […]
(§2) following day. […]
(§3) The test battery of the CIBP model was carried out 45 or 90 min after morphine and mPD5 administration respectively to accommodate the peak efficacy […]
(§4) Mechanically evoked pain (von Frey test).
(§5) Unless otherwise specified, von Frey occurred as described in the following. Animals were habituated to the experimental room for a minimum of 60 min before initiation of the experiment. Mechanical paw withdrawal threshold (PWT) was determined by von Frey measurements of both hind paws. Von Frey filaments ranging from 0.04 to 2 g (g = gram- […]
(§6) Filaments in ascending order were applied to the frontocentral plantar surface of the hind paws.
(§7) Mice were placed in PVC plastic boxes (11.5 cm x 14 cm) on a wire mesh and allowed minimum 20 min habituation prior of experiment initiation. Each von Frey hair was applied five times with adequate resting periods between each application and number of withdrawals recorded. The withdrawal threshold was determined as the von Frey filament eliciting at least three positive trials out of the five applications in two consecutive filaments. A positive trial was defined as sudden paw withdrawal, flinching and/or paw licking induced by the filament.
(§8) For the CIBP model, two habituation sessions were performed on separated days with mice placed in the von Frey equipment for 1-1.5 hours in the presence of the experimenter on day one and random von Frey pocking with the 0.6 g filament on day two. Von Frey monofilaments (North Coast Touch Test, North Coast Medical, Inc.) with target forces of 0.04g, 0.07g, 0.16g, […]
(§9) down method” (PWT=10Xf+kδ) starting with the 0.6 g filament. Positive response was defined as; withdrawal, shaking or grooming of paw following a 2-3 second stimulation. In case, of unclear response, stimulus was repeated after 10-15 seconds.
(§10) For the STZ model, the mechanical threshold response of the injected mice was measured with […]
(§11) injection of test compounds on day 14, mechanical threshold was measured at 1 hour, 2 hours, 4 hours and 6 hours and again on day 15. […]
(§12) Thermally evoked pain (Hargreaves test).
A baseline Hargreaves test was performed on day 0 before inflammatory pain was induced as described in section 2.13. In the Hargreaves test, the mouse was placed in a container on a glass […]

[2] = system: mice, streptozocin (STZ) model of type 1 diabetes; assay: STZ model of diabetic neuropathy, von Frey; type: in vivo, mouse; settings: male mice, positive control, dose not given
Protocol: Induction of Diabetic neuropathy (STZ model).
Diabetes was induced by a single i.p. injection of […] streptozocin (STZ) solution (100 μL/10 g, Sigma-Aldrich S0130, batch #WXBB7152V) in male seven-week-old C57BL/6J (Charles River) mice. Glycemia was tested before, and seven days after injection. All injected mice had blood glucose concentration >350 mg/dL from day seven and were used for analgesic testing of the compounds from day 14. One mouse had to be euthanized at seven days post injection. This experiment was performed by Phenotype Expertise, Marseilles, France - Pain and CNS behaviour CRO under supervision of Stéphane Gaillard, PhD (CEO). […]
as §1, §2, §3, §4, §5, §6, §7, §8, §9, §10, §11, §12
A baseline Hargreaves test was performed on day 0 before inflammatory pain was induced as described in section 2.13. In the Hargreaves test, the mouse was placed in a container on a glass table and left to habituate for at least 15 min. Using the Hargreaves apparatus, a heat beam from beneath was directed towards the hind paws of the mouse, and the paw withdrawal time

Row | SMILES | itching in the mice [1] | duration of significant pain relief [2]
1 | CCCCCCCCCCCCCCCCCCCC(=O)N(CCOCCOCCC(=O)N[C@@H](Cc1c[nH]cn1)C(=O)N[C@@H](Cc1c[nH]c2ccccc12)C(=O)N[C@@H](CC(C)C)C(=O)N[C@@H](CCCCN)C(=O)N[C@H](C(=O)O)C(C)C)CCOCCOCCC(=O)N[C@@H](Cc1c[nH]cn1)C(=O)N[C@@H](Cc1c[nH]c2ccccc12)C(=O)N[C@@H](CC(C)C)C(=O)N[C@@H](CCCCN)C(=O)N[C@H](C(=O)O)C(C)C [aPD5, arachidoyl-NPEG4-(HWLKV)2] | profound itching | 
2 | CC(C)C[C@H](CN)CC(=O)O [pregabalin, reference compound] |  | up to 4 hours
3 | CCCCCCCCCCCCCCCCCC(=O)N(CCOCCOCCC(=O)N[C@@H](Cc1c[nH]cn1)C(=O)N[C@@H](Cc1c[nH]c2ccccc12)C(=O)N[C@@H](CC(C)C)C(=O)N[C@@H](CCCCN)C(=O)N[C@H](C(=O)O)C(C)C)CCOCCOCCC(=O)N[C@@H](Cc1c[nH]cn1)C(=O)N[C@@H](Cc1c[nH]c2ccccc12)C(=O)N[C@@H](CC(C)C)C(=O)N[C@@H](CCCCN)C(=O)N[C@H](C(=O)O)C(C)C [sPD5, stearoyl-NPEG4-(HWLKV)2] | profound itching | 
